Data taken from patent US5843950A, “1,4-dihydropyridine compound and pharmaceutical composition containing the same” (Nikken Chemicals Co., Ltd., priority 1994, dated 1998).
Like-named read-outs stand apart in the source and are kept apart here. One block for each compound: values may come before it.

Legend:
[1] = system: TxA2 synthesis; experiment: TxA2 synthesis inhibiting action test (human blood platelet microsomes); type: biochemical; details: prostaglandin H2
Procedure: TxA2 Synthesis Inhibiting Action Test
One ml of a buffer (20 mM Tris-HCl buffer, 1 mM EDTA, pH 7.5) containing human blood platelet microsomes (50 μg protein/ml) and the test compound (final concentration 10^-7 M) was agitated, then incubated at 0° C. for 30 minutes. To this was added prostaglandin H2 (100 ng/2 μl). This was incubated at 23° C. for 3 minutes to cause a reaction. Next, 1M hydrochloric acid was added to make the solution acidic and stop the reaction, then this was neutralized by 1M Tris-Base and centrifuged at 3000 rpm for 20 minutes. The amount of the TxB2 in the supernatant was measured by the EIA method (Cayman Co. kit).

[2] = system: KCl contraction in rat arteries (thoracic aorta); experiment: Action easing KCl contraction in rat arteries (thoracic aorta ring); details: read-out: IC50 value (50% inhibitory concentration of hyperpotassium contraction), Test Example 7, Table 7, 37° C.
Procedure: Action easing KCl contraction in rat arteries
The specimen was stabilized for approximately 60 minutes, then a potassium chloride solution was added to the Magnus tube to give a final concentration of […]. The positive control compound or the compound of the present invention was cumulatively added from 1×10^-10 M to 1×10^-4 M when the contraction reaction occurring at that time reached equilibrium. The contraction force was recorded by an FD-pickup (made by Nihon Kodensha) via a polygraph (made by Nihon Kodensha).

[3] = system: VCR resistant murine leukemia (P388/VCR) cells; experiment: In vivo effect for overcoming resistance to vincristine in VCR resistant murine leukemia (P388/VCR) bearing mice; set-up: species or system CDF1 male mice
From the text: In vivo test of action suppressing proliferation of cancer cells by concomitant use with anti-cancer drug
The number of survival days were found and the life prolonging rate (T/C) with respect to the controls was found. The effect in overcoming resistance to an anti-cancer drug (T/V) was found by the following formula.
Effect for overcoming resistance to an anti-cancer drug (T/V) %
=[Life prolonging rate (T/C) in case of concomitant use of VCR and the compound of the present invention]/[Life prolonging rate (T/C) in case of VCR alone]×100
Using Compound 18 to Compound 22 and Compound 32, the same procedure was followed as in Test Example 5 to find the effect for overcoming resistance to an anti-cancer drug in vincristine (VCR) resistant murine leukemia cell bearing mice.

[4] = system: KCl contraction in rat arteries (thoracic aorta); experiment: Action easing KCl contraction in rat arteries (thoracic aorta ring); details: read-out: IC50 value (50% inhibitory concentration of hypercalcemic contraction), Test Example 8, Table 8
[5] = Test Example 5, Table 5, T/C with VCR + compound over T/C with VCR alone ×100
[6] = Test Example 5, Table 5, VCR 100 μg/kg i.p. 5 days with compound 100 mg/kg (verapamil 60, nicardipine 75 mg/kg)
[7] = Test Example 6, Table 6, same procedure as Test Example 5

IC50 [2]: > 30 µM
SMILES: CCCC1C(C(=O)OCCCc2cccnc2)=C(C)NC(C)=C1C(=O)OCCCc1cccnc1 [Compound 2, 2,6-dimethyl-4-n-propyl-1,4-dihydropyridine-3,5-dicarboxylic acid bis[3-(3-pyridyl)propyl]ester]
TxA2 synthesis inhibiting action Rate of suppression at 10^-7 mol (%) [1]: 72.0%

SMILES: CC1=C(C(=O)OCCCc2cccnc2)C(CC(C)(C)C)C(C(=O)OCCCc2cccnc2)=C(C)N1 [Compound 4, 2,6-dimethyl-4-(2,2-dimethylpropyl)-1,4-dihydropyridine-3,5-dicarboxylic acid bis[3-(3-pyridyl)propyl]ester]
TxA2 synthesis inhibiting action Rate of suppression at 10^-7 mol (%) [1]: 49.1%
Effect for overcoming resistance T/V (%) [3, 5]: 136%
Life prolonging rate T/C (%) [3, 6]: 145%
Mean days of survival [3, 6]: 14.5 days
IC50 [2]: 20.5 µM

IC50 [2]: 13 µM
SMILES: CC1=C(C(=O)OCCCc2cccnc2)C(C(C)c2ccccc2)C(C(=O)OCCCc2cccnc2)=C(C)N1 (centres unmarked) [Compound 7, 2,6-dimethyl-4-(1-phenylethyl)-1,4-dihydropyridine-3,5-dicarboxylic acid bis[3-(3-pyridyl)propyl]ester]

SMILES: CC1=C(C(=O)OCCCc2cccnc2)C(C2CCCCC2)C(C(=O)OCCCc2cccnc2)=C(C)N1 [Compound 8, 2,6-dimethyl-4-cyclohexyl-1,4-dihydropyridine-3,5-dicarboxylic acid bis[3-(3-pyridyl)propyl]ester]
TxA2 synthesis inhibiting action Rate of suppression at 10^-7 mol (%) [1]: 63.0%

IC50 [2]: 11.5 µM
SMILES: CCOC(=O)C1CC1C1C(C(=O)OCCCc2cccnc2)=C(C)NC(C)=C1C(=O)OCCCc1cccnc1 (centres unmarked) [Compound 9, 2,6-dimethyl-4-(2-ethoxycarbonylcyclopropyl)-1,4-dihydropyridine-3,5-dicarboxylic acid bis[3-(3-pyridyl)propy]ester]

IC50 [2]: > 30 µM
SMILES: CC1=C(C(=O)OCCCc2cccnc2)C(C=Cc2ccco2)C(C(=O)OCCCc2cccnc2)=C(C)N1 [Compound 10, 2,6-dimethyl-4-(2-(2-furyl)ethenyl)-1,4-dihydropyridine-3,5-dicarboxylic acid bis[3-(3-pyridyl)propyl]ester]

SMILES: CC(C)=CCCC(C)CC1C(C(=O)OCCCc2cccnc2)=C(C)NC(C)=C1C(=O)OCCCc1cccnc1 (centres unmarked) [Compound 11, 2,6-dimethyl-4-(2,6-dimethyl-5-heptenyl)-1,4-dihydropyridine-3,5-dicarboxylic acid bis[3-(3-pyridyl)propyl]ester]
Effect for overcoming resistance T/V (%) [3, 5]: 128%
Life prolonging rate T/C (%) [3, 6]: 137%
Mean days of survival [3, 6]: 13.7 days
IC50 [2]: > 30 µM

IC50 [2]: > 30 µM
SMILES: CC1=C(C(=O)OCCCc2cccnc2)C(CCc2ccccc2)C(C(=O)OCCCc2cccnc2)=C(C)N1 [Compound 12, 2,6-dimethyl-4-(2-phenylethyl)-1,4-dihydropyridine-3,5-dicarboxylic acid bis[3-(3-pyridyl)propyl]ester]

IC50 [4]: 8.4 µM
SMILES: CCCCCCCCC1C(C(=O)OCCC#N)=C(C)NC(C)=C1C(=O)OCCCc1cccnc1 (centres unmarked) [Compound 14, 2,6-dimethyl-4-n-octyl-1,4-dihydropyridine-3,5-dicarboxylic acid 3-(2-cyanoethyl) ester, 5-[3-(3-pyridyl)propyl]ester]

SMILES: CCC(C)C1C(C(=O)OCCCc2cccnc2)=C(C)NC(C)=C1C(=O)OCCCc1cccnc1 (centres unmarked) [Compound 19, 2,6-dimethyl-4-(1-methylpropyl)-1,4-dihydropyridine-3,5-dicarboxylic acid bis[3-(3-pyridyl)propyl]ester]
Effect for overcoming resistance T/V (%) [3, 7]: 173%
Life prolonging rate T/C (%) [3, 7]: 176%
Mean days of survival [3, 7]: 18.8 days

SMILES: CCC(CC)C1C(C(=O)OCCCc2cccnc2)=C(C)NC(C)=C1C(=O)OCCCc1cccnc1 [Compound 20, 2,6-dimethyl-4-(1-ethylpropyl)-1,4-dihydropyridine-3,5-dicarboxylic acid bis[3-(3-pyridyl)propyl]ester]
Effect for overcoming resistance T/V (%) [3, 7]: 150%
Life prolonging rate T/C (%) [3, 7]: 148%
Mean days of survival [3, 7]: 15.8 days
IC50 [4]: 4.2 µM

SMILES: CCCCC(CC)C1C(C(=O)OCCCc2cccnc2)=C(C)NC(C)=C1C(=O)OCCCc1cccnc1 (centres unmarked) [Compound 21, 2,6-dimethyl-4-(1-ethylpentyl)-1,4-dihydropyridine-3,5-dicarboxylic acid bis[3-(3-pyridyl)propyl]ester]
Effect for overcoming resistance T/V (%) [3, 7]: 138%
Life prolonging rate T/C (%) [3, 7]: 140%
Mean days of survival [3, 7]: 15.0 days
IC50 [4]: 7 µM

SMILES: CC1=C(C(=O)OCCCc2cccnc2)C(CC(C)CC(C)(C)C)C(C(=O)OCCCc2cccnc2)=C(C)N1 (centres unmarked) [Compound 22, 2,6-dimethyl-4-(2,4,4-trimethylpentyl)-1,4-dihydropyridine-3,5-dicarboxylic acid bis[3-(3-pyridyl)propyl]ester]
Effect for overcoming resistance T/V (%) [3, 7]: 150%
Life prolonging rate T/C (%) [3, 7]: 148%
Mean days of survival [3, 7]: 15.8 days
IC50 [4]: 54 µM

SMILES: CCCCCCCCC1C(C(=O)OCCN2CCN(Cc3cccnc3)CC2)=C(C)NC(C)=C1C(=O)OCCN1CCN(Cc2cccnc2)CC1 [Compound 23, 2,6-dimethyl-4-n-octyl-1,4-dihydropyridine-3,5-dicarboxylic acid bis[2-(4-(3-pyridylmethyl)piperazin-1-yl)ethyl]ester]
Effect for overcoming resistance T/V (%) [3, 5]: 123%
Life prolonging rate T/C (%) [3, 6]: 132%
Mean days of survival [3, 6]: 13.2 days

SMILES: CC1=C(C(=O)OCCCc2cccnc2)C(C(C)C)C(C(=O)OCCN2CCN(Cc3cccnc3)CC2)=C(C)N1 (centres unmarked) [Compound 28, 2,6-dimethyl-4-isopropyl-1,4-dihydropyridine-3,5-dicarboxylic acid 3-[2-(4-(3-pyridylmethyl)piperazin-1-yl)ethyl]ester, 5-[3-(3-pyridyl)propyl]ester]
TxA2 synthesis inhibiting action Rate of suppression at 10^-7 mol (%) [1]: 60.2%

SMILES: CC1=C(C(=O)OCCCCc2cccnc2)C(C(C)C)C(C(=O)OCCCCc2cccnc2)=C(C)N1 [Compound 30, 2,6-dimethyl-4-isopropyl-1,4-dihydropyridine-3,5-dicarboxylic acid bis[4-(3-pyridyl)butyl]ester]
TxA2 synthesis inhibiting action Rate of suppression at 10^-7 mol (%) [1]: 69.7%

IC50 [4]: 6.2 µM
SMILES: CC1=C(C(=O)OCCCc2cccnc2)C(CC2CCCC(C)(C)C2)C(C(=O)OCCCc2cccnc2)=C(C)N1 (centres unmarked) [Compound 33, 2,6-dimethyl-4-(3,3-dimethylcyclohexylmethyl)-1,4-dihydropyridine-3,5-dicarboxylic acid bis[3-(3-pyridyl)propyl]ester]

SMILES: CC1=C(C(=O)OCCCc2cccnc2)CC(C(=O)OCCCc2cccnc2)=C(C)N1 [Control 1, reference compound]
TxA2 synthesis inhibiting action Rate of suppression at 10^-7 mol (%) [1]: 74.7%

SMILES: CC1=C(C(=O)OCc2cccnc2)C(c2ccccc2[N+](=O)[O-])C(C(=O)OCc2cccnc2)=C(C)N1 [Control 2, reference compound]
TxA2 synthesis inhibiting action Rate of suppression at 10^-7 mol (%) [1]: 77.9%

SMILES: CC1=C(C(=O)OCCCc2cccnc2)C(c2ccc(C(=O)O)cc2)C(C(=O)OCCCc2cccnc2)=C(C)N1 [Control 3, reference compound]
TxA2 synthesis inhibiting action Rate of suppression at 10^-7 mol (%) [1]: 37.6%

IC50 [2]: 0.08 µM
SMILES: COCCOC(=O)C1=C(C)NC(C)=C(C(=O)OC(C)C)C1c1cccc([N+](=O)[O-])c1 (centres unmarked) [Nimodipine, reference compound]

SMILES: O=C(O)/C=C/c1ccc(Cn2ccnc2)cc1 [OKY-046, reference compound]
TxA2 synthesis inhibiting action Rate of suppression at 10^-7 mol (%) [1]: 86.4%

SMILES: COc1ccc(CCN(C)CCCC(C#N)(c2ccc(OC)c(OC)c2)C(C)C)cc1OC (centres unmarked) [Verapamil, verapamil, reference compound]
Effect for overcoming resistance T/V (%) [3, 5]: 127%
Life prolonging rate T/C (%) [3, 6]: 136%
Mean days of survival [3, 6]: 13.6 days
IC50 [2]: 2.35 µM
